The target of the experiment is Human immunodeficiency virus type 1 protease (Human immunodeficiency virus 1, UniProt Q72874). Kind of experiment: Inhibition of HIV protease.
For orientation: Ki means the dissociation constant of the complex between target and ligand, obtained from inhibition or displacement. Low values mean tighter binding, high ones weaker binding. For `COc1ccc(S(=O)(=O)N(CC2CCCC2)C[C@@H](O)CN2C(=O)[C@@H](CCN)OC[C@@H]2Cc2ccccc2)cc1`, the Ki stood at 0.6 µM.

Turning to `COc1ccc(S(=O)(=O)N(CC2CCCC2)C[C@@H](O)CN2C(=O)C3(CC3)OC[C@@H]2Cc2ccccc2)cc1`, the Ki came to 0.009 µM. With `COc1ccc(S(=O)(=O)N(CC2CCCC2)C[C@@H](O)CN2C(=O)[C@@H](CCC(N)=O)OC[C@@H]2Cc2ccccc2)cc1` the figure was 0.049 µM; with `C=CC[C@H]1OC[C@H](Cc2ccccc2)N(C[C@H](O)CN(CC2CCCC2)S(=O)(=O)c2ccc(OC)cc2)C1=O`, 0.002 µM; with `COc1ccc(S(=O)(=O)N(CC2CCCC2)C[C@@H](O)CN2C(=O)C3(CCCCC3)OC[C@@H]2Cc2ccccc2)cc1`, 0.002 µM. With `COc1ccc(S(=O)(=O)N(CC2CCCC2)C[C@@H](O)CN2C(=O)[C@@H](CCCN)OC[C@@H]2Cc2ccccc2)cc1` the figure was 5.8 µM; with `C=CC[C@@H]1OC[C@H](Cc2ccccc2)N(C[C@H](O)CN(CC2CCCC2)S(=O)(=O)c2ccc(OC)cc2)C1=O`, 0.27 µM.

Turning to `COc1ccc(S(=O)(=O)N(CC2CCCC2)N2C(=O)C3(CCOCC3)OC[C@@H]2Cc2ccccc2)cc1`, the affinity corresponds to a Ki of 0.023 µM. With `COc1ccc(S(=O)(=O)N(CC2CCCC2)C[C@@H](O)CN2C(=O)[C@H](C)OC[C@@H]2Cc2ccccc2)cc1` the figure was 0.038 µM; with `COc1ccc(S(=O)(=O)N(CC2CCCC2)C[C@@H](O)CN2C(=O)[C@@H](CCN=[N+]=[N-])OC[C@@H]2Cc2ccccc2)cc1`, 0.081 µM. Next, `COc1ccc(S(=O)(=O)N(CC2CCCC2)C[C@@H](O)CN2C(=O)[C@H](Cc3cccc(C#N)c3)OC[C@@H]2Cc2ccccc2)cc1`: 0.49 µM; `COc1ccc(S(=O)(=O)N(CC2CCCC2)C[C@@H](O)CN2C(=O)[C@@H](Cc3ccccc3)OC[C@@H]2Cc2ccccc2)cc1`: 0.035 µM; `COc1ccc(S(=O)(=O)N(CC2CCCC2)C[C@@H](O)CN2C(=O)[C@@H](CCC#N)OC[C@@H]2Cc2ccccc2)cc1`: 0.011 µM. With `COc1ccc(S(=O)(=O)N(CC2CCCC2)C[C@@H](O)CN2C(=O)[C@@H](Cc3cccc(C#N)c3)OC[C@@H]2Cc2ccccc2)cc1` the figure was 0.055 µM; with `COc1ccc(S(=O)(=O)N(CC2CCCC2)C[C@@H](O)CN2C(=O)[C@@H](CCO)OC[C@@H]2Cc2ccccc2)cc1`, 0.03 µM.

The record behind these values is ChEMBL document CHEMBL1146907, “New, potent P1/P2-morpholinone-based HIV-protease inhibitors” (Bioorg Med Chem Lett, 2006).
